Test results as given in the NIST ThermoML archive (doi:10.1016/j.tca.2013.08.007).
± gives the expanded uncertainty stated by the source.

Assay: mn = molality of the nth substance listed, in mol/kg
Conditions: 101 kPa, Liquid, Vibrating tube method

[Cl-].[Na+] [sodium chloride] + O
mass density [kg/m3]
Conditions	m1 = 0.2	m1 = 0.4	m1 = 0.6	m1 = 0.8	m1 = 1	m1 = 1.5
288.15 K	1007.43 ± 0.31	1015.66 ± 0.33	1023.65 ± 0.34	1031.47 ± 0.35	1039.16 ± 0.37	1058.09 ± 0.41
298.15 K	1005.16 ± 0.31	1013.14 ± 0.32	1020.96 ± 0.34	1028.64 ± 0.35	1036.19 ± 0.37	1054.58 ± 0.4
308.15 K	1002.07 ± 0.31	1009.91 ± 0.32	1017.59 ± 0.33	1025.13 ± 0.35	–	1050.69 ± 0.4
318.15 K	998.17 ± 0.3	1005.91 ± 0.32	–	1020.82 ± 0.34	1028.35 ± 0.36	1046.38 ± 0.39
